What was measured:
[1] = biological target: T1, CYP2C19 (Homo sapiens, UniProt P33261); test: Human liver microsome CYP450 inhibition, CYP2C19 (S)-mephenytoin 4'-hydroxylation; format: in vitro ADME; conditions: human liver microsomes, (S)-mephenytoin probe substrate
T1 construct: tissue Corning Gentest 452161; host or cells: human liver microsomes
Procedure: (§1) The inhibition effect of the compounds of the present disclosure on the human liver microsome CYP450 enzyme was determined by the following method:
(§2) An appropriate amount of human liver microsome stock solution (20 mg/mL) was diluted to obtain a 0.25 mg/mL microsome solution with 7.5 mM MgC12 solution for later use (prepared right before use).
(§3) b. An appropriate amount of the stock solution was precisely pipetted, and diluted into series solution I at the concentrations of 10 mM, 3 mM, 1 mM, 0.3 mM, 0.03 mM and 0.003 mM with an appropriate amount of DMSO solution. An appropriate amount of the above series solution I was precisely pipetted, and diluted to obtain series solution II at the concentrations of 3 mM, 1 mM, 0.3 mM, 0.1 mM, 0.03 mM, 0.003 mM and 0.0003 mM with an appropriate amount of acetonitrile. An appropriate amount of the above series solution II was precisely pipetted, and diluted with PBS to obtain a working solution at the concentrations of 150 μM, 50 μM, 15 μM, 5μM, 1.5 μM, 0.15 μM and 0.015 μM for later use.
a. […]
(§4) The values were calculated by Graphpad Prism to obtain the IC50 values for the inhibition of drugs on CYP2C19 (S)-mephenytoin 4′-hydroxylation and CYP3A4M midazolam 1-hydroxylation metabolism in human liver microsomes, as shown in Table 6.

[2] = biological target: T2, interaction between the KRAS protein subtype G12D and the SOS1 protein (Homo sapiens, UniProt Q07889); test: Inhibition of the interaction between KRAS G12D and SOS1 protein (AlphaLISA/AlphaScreen); format: binding; conditions: KRAS G12D + GST-TEV-SOS1(564-1049) + GDP
T2 construct: GST-TEV-SOS1(564-1049) (Viva Biotech, SOS1-191010); purchased SOS1: Viva Biotech; KRAS: Shanghai Panchao Biotechnology Co., Ltd. SOS1-191010
T2 sequence (Q07889 564-1049): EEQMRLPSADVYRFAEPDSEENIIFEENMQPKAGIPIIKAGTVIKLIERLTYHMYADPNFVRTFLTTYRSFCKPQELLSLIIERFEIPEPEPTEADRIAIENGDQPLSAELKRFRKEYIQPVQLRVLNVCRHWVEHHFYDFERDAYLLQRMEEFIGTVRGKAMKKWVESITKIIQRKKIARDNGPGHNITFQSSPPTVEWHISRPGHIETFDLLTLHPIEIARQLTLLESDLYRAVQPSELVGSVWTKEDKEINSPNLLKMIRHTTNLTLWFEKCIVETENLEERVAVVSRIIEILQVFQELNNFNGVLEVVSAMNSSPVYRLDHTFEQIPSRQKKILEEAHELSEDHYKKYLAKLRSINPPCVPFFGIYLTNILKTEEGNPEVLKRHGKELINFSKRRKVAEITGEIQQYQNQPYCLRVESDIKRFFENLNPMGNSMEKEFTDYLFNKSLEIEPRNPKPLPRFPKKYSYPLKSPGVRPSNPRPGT
Method in brief: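 Biotinylated KRAS G12D or G12V preincubated with SOS1 and GDP, then with compound (10-point 5-fold series from 40 μM) for 30 min at room temperature in PBS, 0.1% BSA, 0.05% Tween 20. Glutathione acceptor/streptavidin donor beads added for 60 min; Alpha signal read and IC50 calculated.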

[3] = biological target: T3, CYP3A4M (Homo sapiens, UniProt P08684); test: Human liver microsome CYP450 inhibition, CYP3A4M midazolam 1-hydroxylation; format: in vitro ADME; conditions: human liver microsomes, midazolam probe substrate
T3 construct: tissue Corning Gentest 452161; host or cells: human liver microsomes
Procedure: as §1, §2, §3
a. […]
as §4

T1 sequence (P33261 whole entry): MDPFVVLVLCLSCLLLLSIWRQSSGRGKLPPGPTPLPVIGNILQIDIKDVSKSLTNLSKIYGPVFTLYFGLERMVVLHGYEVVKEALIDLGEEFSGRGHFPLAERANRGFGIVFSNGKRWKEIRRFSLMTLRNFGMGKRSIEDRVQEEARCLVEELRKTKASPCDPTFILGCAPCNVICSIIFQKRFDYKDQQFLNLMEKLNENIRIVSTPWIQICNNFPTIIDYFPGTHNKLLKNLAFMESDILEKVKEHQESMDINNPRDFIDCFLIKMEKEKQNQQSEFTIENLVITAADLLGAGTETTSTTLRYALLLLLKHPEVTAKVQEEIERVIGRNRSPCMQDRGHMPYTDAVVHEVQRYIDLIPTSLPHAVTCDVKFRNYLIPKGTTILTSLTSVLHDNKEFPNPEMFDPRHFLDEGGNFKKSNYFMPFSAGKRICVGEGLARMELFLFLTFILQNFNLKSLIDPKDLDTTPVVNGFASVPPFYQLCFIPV
T3 sequence (P08684 whole entry): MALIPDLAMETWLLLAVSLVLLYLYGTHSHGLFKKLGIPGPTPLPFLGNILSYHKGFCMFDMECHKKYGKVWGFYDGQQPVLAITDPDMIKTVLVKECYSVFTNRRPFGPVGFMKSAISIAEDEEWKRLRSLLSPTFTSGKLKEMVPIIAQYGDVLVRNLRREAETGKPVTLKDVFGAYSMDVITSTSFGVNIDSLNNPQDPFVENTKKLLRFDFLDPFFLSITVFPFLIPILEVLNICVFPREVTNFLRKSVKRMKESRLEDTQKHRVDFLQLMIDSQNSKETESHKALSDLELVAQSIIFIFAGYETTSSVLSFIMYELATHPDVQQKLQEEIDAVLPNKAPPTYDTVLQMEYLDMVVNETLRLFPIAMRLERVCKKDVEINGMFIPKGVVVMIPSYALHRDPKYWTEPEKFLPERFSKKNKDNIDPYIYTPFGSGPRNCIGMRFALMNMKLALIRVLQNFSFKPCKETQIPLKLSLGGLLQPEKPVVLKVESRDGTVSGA

Cc1nc(N[C@H](C)c2cccc(C(F)F)c2F)c2cc([C@]3(O)CC[C@@H](O)CC3)c(=O)[nH]c2n1 [Example 18-p1, 4-(((R)-1-(3-(difluoromethyl)-2-fluorophenyl)ethyl)amino)-6-((1s,4S)-1,4-dihydroxycyclohexyl)-2-methylpyrido[2,3-d]pyrimidin-7(8H)-one]
IC50 [1]: > 30 µM
IC50 [2]: 20 nM
IC50 [3]: > 30 µM
